Assay results from article PMC8551311, “Energy transfer between the nicotinamide nucleotide transhydrogenase and ATP synthase of Escherichia coli” (Scientific Reports, 2021).

What was measured:
[1] = molecular target: T1, E. coli F1F0 ATP synthase (Escherichia coli, UniProt P0ABB0+P0ABB4); assay: ATP synthesis in proteoliposomes, luciferin/luciferase luminescence; format: biochemical; set-up: gene atpA; with ATP synthase gamma chain; ATP synthase subunit delta; ATP synthase epsilon chain; ATP synthase subunit a; ATP synthase subunit b; ATP synthase subunit c; conditions: 250 μM ADP, 40 mM KH2PO4, 5 mM MgCl2, 1.5 mM NAD+, 750 μM NADPH; 50 mM HEPES pH 7.5, 100 mM KCl; co-reconstituted with transhydrogenase
[2] = molecular target: T1, E. coli F1F0 ATP synthase; set-up: gene atpA; conditions: 250 μM ATP, 2-4 mM MgCl2; 50 mM HEPES pH 7.5, 100 mM KCl; co-reconstituted with transhydrogenase

Nc1ncnc2c1ncn2[C@@H]1O[C@H](COP(=O)(O)OP(=O)(O)O)[C@@H](O)[C@H]1O [ADP]
ATP synthesis in proteoliposomes, luciferin/luciferase luminescence [1]: upon addition of NADPH, continuous ATP synthesis is observed

Nc1ncnc2c1ncn2[C@@H]1O[C@H](COP(=O)(O)OP(=O)(O)OP(=O)(O)O)[C@@H](O)[C@H]1O [ATP]
ATP-driven proton pumping in proteoliposomes (ACMA quench); APADH absorbance 375 [2]: addition of ATP energized inward proton pumping by ATP synthase
